Entries after “also recorded” stand apart in the source; their conditions may differ.
How the values were obtained:
H23 = experiment: Etoposide dose response curves in the presence of 5 μM cisplatin; format: cell-based, human; details: H23 (protected), combination with DZNep
Procedure: (§1) FIG. 25A is a Waterfall plot of cell line growth in 1 μM DZNep for 4 days compared to untreated cells, n=3-5 biological replicates, * indicates p<0.04, ** p<0.007. […] FIG. 25C is a pair of representative etoposide dose response curves performed in the presence of 5 μM cisplatin, the sensitized line PC9 (4.2-fold decrease, p<0.0001) and the protected line H23 (3.4-fold increase, p<0.0001) are shown.
(§2) Cell lines were dissociated, counted and plated at 5000 cells per well in flat bottom opaque tissue culture treated 96 well plates (CytoOne). Edge wells were filled with PBS. The following day, 2× drug diluted in media was added to each well such that the well then contained 100 ul media with 1× drug concentration at the following doses: etoposide; 0, 0.1, 1, 3, 5, 7, 10, 50, 100, 500 μM, cisplatin; 0, 0.1, 1, 5, 10, 30, 70, 100, 500 μM, or doxorubicin; 0, 0.01, 0.1, 0.5, 1, 3, 5, 7, 10, 50 μM. After 4 days, CELLTITER-GLO™ (Promega) was added and luminescence was read on a BioTec plate reader to determine relative cell number in each well. Data were averaged for triplicate or quadruplicate technical replicates and normalized to the untreated wells. Results from three or four independent biological replicate experiments were input into GRAPHPAD PRISM™ software to extrapolate IC50 and s.e.m. of IC50 for a given cell line.

PC9 = experiment: as above; format: cell-based, human; details: PC9 (sensitized), combination with DZNep
Procedure: as §1, §2

[1] = system: sensitized and protected NSCLC cell lines; experiment: 7AAD cell cycle flow cytometry; format: cell-based, human
Procedure: (§3) Cell lines were plated at 1.5×10^6 cells per 10 cm plate and treated with drug for 4 days. Cells were then dissociated, fixed with 100% ice cold Ethanol for at least 2 hours, incubated for 30 minutes with 1 mg/mL RNase A and resuspended in 20 μg/mL 7AAD. 30,000 events were collected on the BD Facscalibur™ and analyzed with the ModFit LT™ software. In cases where etoposide treated cells had such abnormal ploidy that ModFit LT™ was unable to correctly model the cell cycle, the data was analyzed manually on FlowJo™ software by setting the gates on the etoposide sample and copying them to the etoposide+DZNep and etoposide shEZH2 samples.
(§4) For 7AAD-cell cycle analysis, cell lines were plated at 1.5×10^6 cells per 10 cm plate and treated with drug for 4 days. Cells were then dissociated, fixed with 100% ice cold Ethanol for at least 2 hours, incubated for 30 minutes with 1 mg/mL DNase-free RNase A (Thermo) and resuspended in 20 μg/mL 7-Aminoactinomycin D (7AAD; Invitrogen). 30,000 events were collected on the BD FORTESSA™ and analyzed with the MODFIT LT™ software. Results from three to four independent biological replicate experiments were averaged for each cell line.

HCC95 = experiment: Growth rate over 10 day time-course (Cell Titer Glo); format: cell-based, human; details: HCC95, 1 μM DZNep, 10 day time-course
Procedure: (§5) FIG. 2A depicts a Western Blot for EZH2 and H3K27me3 performed on whole cell extracts 4 days after indicated treatments, β-actin shown as a loading control. FIG. 2B depicts a graph of the growth rates of matched shGFP and shGFP cells treated with 1 μM DZNep and assayed by Cell Titer Glo at days 3, 5, 7, and 10 post plating at equal densities. Average luminescence ±s.e.m. for 3 replicate wells is shown based on when each shGFP cell line reached logarithmic growth, * indicates p<0.03. FIG. 2C depicts a graph of the response to Etoposide. Cell lines were plated at equal densities and treated a range of etoposide doses with or without 1 μM DZNep. On the 4th day, cell viability was measured using Cell Titer Glo and the percent survival at each dose of etoposide was calculated. Dose response curves were generated for the no DZNep and DZNep treated cells using the GraphPad prism software and IC50s were extrapolated. The fold change±s.e.m. of etoposide IC50 in response to DZNep is plotted, n=4 biological replicates, * indicates p<0.05. Cell lines with mutations in Brg1, EGFR and B-Raf are indicated.

human NSCLC lines [2] = experiment: Growth rates over 10 day time-course (Cell Titer Glo), 12 cell lines; format: cell-based; details: 1 μM DZNep, 10 day time-course
Procedure: as §5

H460 = experiment: 7AAD cell cycle flow cytometry, stably transduced lines; format: cell-based, human; details: etoposide treated H460 shBrg1 and EGFR over-expression
Procedure: as §3, §4

HCC15 = experiment: as above; format: cell-based, human
Procedure: as §3, §4

human NSCLC lines [3] = experiment: Cell line growth, 4 days (Cell Titer Glo); format: cell-based; details: 1 μM DZNep
Procedure: Cell lines were dissociated, counted and plated at 5000 cells per well in flat bottom opaque tissue culture treated 96 well plates (CytoOne). Edge wells were filled with PBS. The following day, 2× drug diluted in media was added to each well such that the well then contained 100 ul media with 1× drug concentration. After 4 days, Cell Titer Glo™ (Promega) was added and luminescence was read on a BioTec plate reader to determine relative cell number in each well. Data were averaged for triplicate or quadruplicate technical replicates, normalized to the untreated wells and input into GraphPad Prism software to extrapolate IC50.
as §2, with “Results from three or four independent biological replicate experiments were input into GRAPHPAD PRISM™ software to extrapolate IC50 and s.e.m. of IC50 for a given cell line.” left out

EZH2 and H3K27me3 = experiment: Western Blot for EZH2 and H3K27me3 on whole cell extracts; format: cell-based, human; details: 1 μM DZNep, 4 days
Procedure: For Western blotting, 25 μg of protein extract per sample was denatured with heat and reducing agents, separated on a 4-12% acrylimide gel and transferred to nitrocellulose. Antibodies used for Western blotting were: EZH2 (Cell Signalling), β-actin (AbCAM) and H3K27me3 (Upstate).
Whole cell extracts were made in RIPA buffer (0.5% Deoxycholate, 1% IGEPAL-CA630, 0.1% sodium dodecyl sulfate, 150 mM NaCL, 50 mM Tris-8.1), lysates were cleared by centrifugation, and protein concentrations were quantified with the Pierce BCA Protein Assay Kit (Thermo). For Western blotting, 25 μg of protein extract per sample was denatured with heat and reducing agents, separated on a 4-12% acrylimide gel (BioRad) and transferred to nitrocellulose (GE Healthcare). Antibodies used for Western blotting were: EZH2 (clone D2C9; Cell Signaling; 1:200), Histone H3 (polyclonal; AbCAM ab1791; 1:2000) and H3K27me3 (polyclonal; Millipore 07-449; 1:1000) all incubated overnight at 4° C. Secondary antibody, anti-rabbit-HRP (Santa Cruz sc-2313; 1:5,000), was incubated for 1 hour at room temperature. After washing, chemi-luminescence was visualized with Western Lightning Plus-ECL (PerkinElmer) and exposure onto KODAK BioMax XAR™ film.

## Nc1nccc2c1ncn2[C@@H]1C=C(CO)[C@@H](O)[C@H]1O [DZNep, 3-Deazaneplanocin A]
H23
  increase in etoposide IC50: 3.4 fold
PC9
  decrease in etoposide IC50: 4.2 fold
[1]; protected cell lines, 10 μM etoposide + 1 μM DZNep, 4 days
  average fewer cells in S phase vs etoposide alone: 10%
[1]; protected lines, 5 μM etoposide, DZNep 1 μM or shEZH2, 4 days
  average fewer cells in S phase vs etoposide alone: 14%
[1]; sensitized cell lines, 10 μM etoposide + 1 μM DZNep, 4 days
  average more cells in S phase in response to DZNep: 20%
[1]; sensitized lines, 5 μM etoposide, DZNep 1 μM or shEZH2, 4 days
  average more cells in S phase: 14%
HCC95
  change in proliferation: increased proliferation
Human NSCLC lines [2]
  cell lines with reduced growth rates: 11 out of 12
H460
  S phase change in response to DZNep: enriched for S phase
HCC15; etoposide treated HCC15 Brg1 over-expression
  S phase change in response to DZNep: dramatically smaller accumulation in S phase; also recorded: did not accumulate in S phase
HCC15; etoposide treated HCC15 shEGFR
  S phase change in response to DZNep: decrease in S phase; also recorded: no additional increase in S phase
Human NSCLC lines [3]; 4-day time point
  average reduction in growth of the cell lines: 20%
Human NSCLC lines [3]; 4-day time-point, panel of 26 lines
  cell lines showing a significant reduction in growth: 11 of 26
EZH2 and H3K27me3
  EZH2 protein abundance and H3K27me3 catalytic mark: effectively reduced

Source: patent US9895390B2, “Methods and assays for combination treatment of cancer” (CHILDREN'S MEDICAL CENTER CORPORATION, priority 2012, dated 2018)
